Source: patent publication US10183944B2 (Asana Biosciences, LLC, priority 2011, dated 2019)
Where a name gives a salt, the structure may show the parent alone. Read-outs that look alike come from different tables or passages of the source.

Experiments:
RBL2H3 cells = assay: Degranulation assay: β-hexosaminidase release during immune complex mediated degranulation; type: cell-based, rat; conditions: Assay Protocol B (96 well format); for inhibition at 1 µM: read-out: Degranulation % inhibition at 1 μM; for EC50: read-out: Degranulation EC50
Method: The objective of this assay was to examine by Fluorescence method the effect of compounds on β-hexosaminidase release during immune complex mediated degranulation in RBL2H3 cells. Compounds were tested for their ability to inhibit the ability of this immune complex to mediate β-hexosaminidase release, in an enzyme assay with […] as substrate. […] Emission 460 nm). [table] [table] RBL2H3 cells were maintained in MEM complete media containing 10% FBS at 70%-80% confluence in a mammalian cell culture CO2 incubator with 5% CO2 at 37° C. 2×10^5 cells/well were plated in 1 mL of complete media and incubated for 5 hours for cell attachment. Complete media was replaced with 1 mL of serum free MEM media containing 1.2 μg/mL of anti-DNP rat IgE as sensitizing agent and further incubated overnight with 5% CO2 at 37° C. […] Cells were further stimulated with 5 μg/mL of DNP-BSA for 60 minutes. Plates were centrifuged for 5 minutes at 1000 rpm and 25 μL of culture supernatant was transferred from each assay well into a 96 well black coated plate. 25 μL β-NAG substrate was added to this mixture and incubated at room temperature for 30 minutes. The reaction was terminated with 100 μL of stop solution and fluorescence was monitored. (Excitation 355 nm; Emission 460 nm) See, Sanderson, (2010), Cellular Immunology, 262(1): 28-34 and Silverman, (2006) MCB, 26(5):1826-1838, which are incorporated herein by reference. The % release of β-Hexosaminidase for the test compound was calculated using the following formula: RBL2H3 cells were maintained in MEM complete media containing 10% FBS at 70-80% confluence in a mammalian cell culture CO2 incubator with 5% CO2 at 37° C. 5×10^4 cells/well were plated in 200 μL of complete media containing 0.3 μg/mL of anti-DNP rat IgE as sensitizing agent for 24 hours at 37° C. & 5% CO2. The following day, cells were washed twice with PIPES buffer for 10 minutes at 37° C. and replenished with serum free MEM media. Cells were treated with various concentrations of test compounds (in 0.5% DMSO) for 15 minutes at 37° C. and 5% CO2. The cells were further stimulated with 0.1 μg/mL of DNP-BSA for 45 minutes. The plates were spun for 5 minutes at 2000 rpm and 25 μL of culture supernatant was then transferred from each assay well into a 96 well black coated plate. […] β-NAG substrate was added and incubated at RT for 30 minutes. After incubation with substrate, 150 μL of stop solution was added and fluorescence was monitored. (Excitation 355 nm; Emission 460 nm). See, Yamamoto, JPET, 306(3):1174-1181 (2003) and Taylor, MCB, 15(8): 4149-4157 (1995), which are herein incorporated by reference. Release of β-hexosaminidase during the degranulation process by immune complex mediated FcεRI stimulation is through the SYK pathway. The % inhibition of β-hexosaminidase release by Syk inhibitor gives information with regard to its Syk inhibition potency.

[1] = target: Syk (356-635 amino acids) catalytic domain (Homo sapiens (Human), UniProt P43405); assay: Inhibition of enzymatic Syk kinase activity (radiometric); type: biochemical; conditions: read-out: IC50 Syk
In short: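 Human Syk (356-635) kinase domain (0.035–7.5 ng/reaction) preincubated with compound 30 minutes at room temperature, then reacted with pG4T substrate, 100 μM ATP (stock) and γ-32P-ATP for 10 minutes at 30° C. Reaction stopped with HCl/ATP, spotted on P81 paper, washed and counted by scintillation. Percent inhibition versus no-compound counts.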

JAK2 = JAK2 (Homo sapiens (Human), UniProt O60674); assay: Inhibition of enzymatic JAK2 kinase activity (TR-FRET); type: biochemical; conditions: read-out: IC50 JAK
JAK2, sequence (O60674 808-1132): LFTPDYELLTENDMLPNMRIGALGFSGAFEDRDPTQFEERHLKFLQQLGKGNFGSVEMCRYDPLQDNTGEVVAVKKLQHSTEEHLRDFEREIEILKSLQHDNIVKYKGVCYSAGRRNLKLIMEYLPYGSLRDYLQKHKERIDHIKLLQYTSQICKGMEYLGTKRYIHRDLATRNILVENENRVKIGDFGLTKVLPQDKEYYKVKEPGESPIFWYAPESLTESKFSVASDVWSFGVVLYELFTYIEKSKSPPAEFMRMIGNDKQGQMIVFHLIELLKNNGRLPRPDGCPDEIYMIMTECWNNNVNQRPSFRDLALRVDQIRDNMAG
In short: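 Enzyme preincubated with compound 30 min at RT, then Ulight-poly-GT substrate and ATP added for 60 min at RT. EDTA stop, Eu-antiphosphotyrosine antibody; TR-FRET ratio 665/615 nm (ex 340 nm), blank-corrected; % inhibition versus positive control.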

[2] = Rattus norvegicus, RBL-2H3, 1 μM

Row | Compound | inhibition at 1 µM (RBL2H3 cells; [2]) [%] | EC50 (RBL2H3 cells; Rattus norvegicus, RBL-2H3) [nM] | IC50 [1] [nM] | further results
1 | N#CCC1CCN(c2nc(Nc3ccc(N4CCC5(CC4)CC5C(=O)O)cc3)c3c(=O)[nH]ncc3n2)CC1 (centres unmarked) [Example 66, 6-(4-((2-(4-(cyanomethyl)piperidin-1-yl)-5-oxo-5,6-dihydropyrimido[4,5-d]pyridazin-4-yl)amino)phenyl)-6-azaspiro[2.5]octane-1-carboxylic acid] | 75 | 352 | < 50 | 
2 | O=C(c1ccc(Nc2nc(N3CCCCCC3)nc3cn[nH]c(=O)c23)cc1)N1CCOCC1 [Example 68, 2-(azepan-1-yl)-4-((4-(morpholine-4-carbonyl)phenyl)amino)pyrimido[4,5-d]pyridazin-5(6H)-one] | 100 | 1.2 | < 100 | 
3 | O=C(O)CC1CCN(c2ccc(Nc3nc(N4CCCCCC4)nc4cn[nH]c(=O)c34)cc2)CC1 [Example 69, 2-(1-(4-((2-(azepan-1-yl)-5-oxo-5,6-dihydropyrimido[4,5-d]pyridazin-4-yl)amino)phenyl)piperidin-4-yl)acetic acid] | 100 | 31 | < 10 | 
4 | O=c1[nH]ncc2nc(N3CCCCCC3)nc(Nc3ccc(OCCN4CCNCC4)cc3)c12 [Example 89, 2-(azepan-1-yl)-4-((4-(2-(piperazin-1-yl)ethoxy)phenyl)amino)pyrimido[4,5-d]pyridazin-5(6H)-one hydrochloride] | 100 |  |  | 
5 | N#CCC1CCN(c2ccc(Nc3nc(N4CCC(CC#N)CC4)nc4cn[nH]c(=O)c34)cn2)CC1 [Example 103, 2-(1-(5-((2-(4-(cyanomethyl)piperidin-1-yl)-5-oxo-5,6-dihydropyrimido[4,5-d]pyridazin-4-yl)amino)pyridin-2-yl)piperidin-4-yl)acetonitrile] | 87 | 32 |  | 
6 | CC1CC(C)CN(c2nc(Nc3ccc(N4CCC(CC(=O)O)CC4)cc3)c3c(=O)[nH]ncc3n2)C1 (centres unmarked) [Example 117, 2-(1-(4-((2-(3,5-dimethylpiperidin-1-yl)-5-oxo-5,6-dihydropyrimido[4,5-d]pyridazin-4-yl)amino)phenyl)piperidin-4-yl)acetic acid] | 89 | 95 |  | 
7 | O=C(O)CN1CCN(c2ccc(Nc3nc(N4CCCCCC4)nc4cn[nH]c(=O)c34)cc2)CC1 [Example 125, 2-(4-(4-((2-(azepan-1-yl)-5-oxo-5,6-dihydropyrimido[4,5-d]pyridazin-4-yl)amino)phenyl)piperazin-1-yl)acetic acid] | 38 | 238 |  | 
8 | O=C(O)C1CC12CCN(c1ccc(Nc3nc(-c4ccc(F)cc4)nc4cn[nH]c(=O)c34)cc1)CC2 (centres unmarked) [Example 133, 6-(4-((2-(4-fluorophenyl)-5-oxo-5,6-dihydropyrimido[4,5-d]pyridazin-4-yl)amino)phenyl)-6-azaspiro[2.5]octane-1-carboxylic acid] | 98 | 25 |  | 
9 | CCN1CCN(CCOc2ccc(Nc3nc(N4CCCCCC4)nc4cn[nH]c(=O)c34)cc2)CC1 [Example 151, 2-(azepan-1-yl)-4-((4-(2-(4-ethylpiperazin-1-yl)ethoxy)phenyl)amino) pyrimido[4,5-d]pyridazin-5(6H)-one] |  | 24 |  | 
10 | O=c1[nH]ncc2nc(N3CCCCCC3)nc(Nc3ccc(OCCN4CCCNCC4)cc3)c12 [Example 164, 4-((4-(2-(1,4-diazepan-1-yl)ethoxy)phenyl)amino)-2-(azepan-1-yl)pyrimido[4,5-d]pyridazin-5(6H)-one] |  | 55 |  | 
11 | N#CCC1CCN(c2nc(Nc3ccc(OCCC4CCNCC4)cc3)c3c(=O)[nH]ncc3n2)CC1 [Example 169, 2-(1-(5-oxo-4-((4-(2-(piperidin-4-yl)ethoxy)phenyl)amino)-5,6-dihydropyrimido[4,5-d]pyridazin-2-yl)piperidin-4-yl)acetonitrile] | 17 | 230 | < 50 | 
12 | CN(c1nc(Nc2ccc(N3CCC4(CC3)CC4C(=O)O)cc2)c2c(=O)[nH]ncc2n1)C1CCCCC1 (centres unmarked) [Example 170, 6-(4-((2-(cyclohexyl(methyl)amino)-5-oxo-5,6-dihydropyrimido[4,5-d]pyridazin-4-yl)amino)phenyl)-6-azaspiro[2.5]octane-1-carboxylic acid] | 39 | 107 |  | 
13 | N#CCC1CCN(c2nc(Nc3ccc(CCCN4CCNCC4)cc3)c3c(=O)[nH]ncc3n2)CC1 [Example 174, 2-(1-(5-oxo-4-((4-(3-(piperazin-1-yl)propyl)phenyl)amino)-5,6-dihydropyrimido[4,5-d]pyridazin-2-yl)piperidin-4-yl)acetonitrile] | 99 | 15 |  | 
14 | O=c1[nH]ncc2nc(N3CCCCCC3)nc(Nc3ccc(N4CCN(CCO)CC4)cc3)c12 [Example 190, 2-(azepan-1-yl)-4-((4-(4-(2-hydroxyethyl)piperazin-1-yl)phenyl)amino)pyrimido[4,5-d]pyridiazin-5(6H)-one] |  |  |  | Degranulation % inhibition at 1 μM (RBL2H3 cells; 1 μM): 83%; EC50 (RBL2H3 cells): 21 nM
15 | CCN1CCN(CCc2ccc(Nc3nc(N4CCCCCC4)nc4cn[nH]c(=O)c34)cc2)CC1 [Example 209, 2-(azepan-1-yl)-4-((4-(2-(4-ethylpiperazin-1-yl)ethyl)phenyl)amino) pyrimido[4,5-d]pyridazin-5(6H)-one] | 81 | 29 | < 10 | 
16 | N#CCC1CCN(c2nc(Nc3ccc(N4CCC(F)CC4)cc3)c3c(=O)[nH]ncc3n2)CC1 [Example 290, 2-(1-(4-((4-(4-fluoropiperidin-1-yl)phenyl)amino)-5-oxo-5,6-dihydropyrimido[4,5-d]pyridazin-2-yl)piperidin-4-yl)acetonitrile] | 100 | 20 |  | 
17 | CS(=O)(=O)c1ccc(Nc2nc(N3CCCCCC3)nc3cn[nH]c(=O)c23)cc1 [Example 334, 2-(azepan-1-yl)-4-((4-(methylsulfonyl)phenyl)amino)pyrimido[4,5-d]pyridazin-5(6H)-one] |  |  | < 50 | IC50 (JAK2): < 10 nM
18 | N#CCC1CCN(c2nc(Nc3ccc4[nH]nnc4c3)c3c(=O)[nH]ncc3n2)CC1 [Example 335, 2-(1-(4-((1H-benzo[d][1,2,3]triazol-5-yl)amino)-5-oxo-5,6-dihydropyrimido[4,5-d]pyridazin-2-yl)piperidin-4-yl) acetonitrile] |  |  | < 50 | IC50 (JAK2): < 50 nM
19 | N#CCC1CCN(c2nc(Nc3ccc4[nH]c(=O)[nH]c4c3)c3c(=O)[nH]ncc3n2)CC1 [Example 336, 2-(1-(5-oxo-4-((2-oxo-2,3-dihydro-1H-benzo[d]imidazol-5-yl)amino)-5,6-dihydropyrimido[4,5-d]pyridazin-2-yl)piperidin-4-yl)acetonitrile] |  |  | < 50 | IC50 (JAK2): < 50 nM
20 | N#CCC1CCN(c2nc(Nc3ccc(CCCF)cc3)c3c(=O)[nH]ncc3n2)CC1 [Example 337, 2-(1-(4-((4-(3-fluoropropyl)phenyl)amino)-5-oxo-5,6-dihydropyrimido[4,5-d]pyridazin-2-yl)piperidin-4-yl) acetonitrile] |  |  | < 50 | IC50 (JAK2): < 50 nM
21 | N#CCC1CCN(c2nc(Nc3ccc(OC(F)F)cc3)c3c(=O)[nH]ncc3n2)CC1 [Example 338, 2-(1-(4-((4-(difluoromethoxy)phenyl)amino)-5-oxo-5,6-dihydropyrimido[4,5-d]pyridazin-2-yl)piperidin-4-yl) acetonitrile] |  |  | < 100 | IC50 (JAK2): > 100 nM
